From US20100099770A1, “METHOD FOR TREATING DIABETIC PERIPHERAL NEUROPATHIC PAIN” (SCHWARZ PHARMA AG, priority 2001, published 2010)
Entries after “also recorded” stand apart in the source; their conditions may differ. Marks after values point to notes of the source that are not given here.

Columns and labels:
[1] = system: formalin-induced tonic inflammatory nociceptive behaviour; experiment: Formalin test, rat (weighted behavioural scoring); assay type: in vivo; settings: for Weighted pain score: score 0-3, ±SEM; for effect on formalin-induced nociceptive behaviour (in words): i.p. just prior to formalin, 5-40 mg/kg, late phase
Protocol: The formalin test is a chemically-induced tonic pain model in which biphasic changes of nociceptive behaviour are assessed and spinal/supraspinal plasticity of nociception is considered as a molecular basis for neuropathic pain particularly during the second (=late) phase of the test, during which most clinically used drugs against neuropathic pain are active.
The compound was tested for anti-nociceptive properties by use of the weighted behavioural scoring method: Freely moving animals underwent observational assessment of the position of the left hind paw according to a rating score scaled 0-3 before and 10, 20, 30 and 40 min after injection of 0.05 ml of sterile 2.5% formalin under the skin on the dorsal surface of the paw.

[2] = system: neuropathic pain (CHUNG), thermal stimulation; experiment: Neuropathic pain (CHUNG) test, thermal stimulation on lesioned paw; assay type: in vivo, rat; settings: for PAW-WITHDRAWAL LATENCY, % change: compared with lesioned control; for PAW-WITHDRAWAL LATENCY, mean ± s.e.m.: lesioned paw
Description: The following Tables 8 and 9 show the effects of harkoseride (hereinafter referred tows SPM 927), carbamazepine, levetiracetam, gabapentin and morphine in the neuropathic pain (CHUNG) test in the rat. Eight (8) rats per group were used.

[3] = system: chronic constriction injury-induced thermal hyperalgesia; experiment: CCI model: thermal hyperalgesia (radiant heat withdrawal latency); assay type: in vivo, rat; settings: for Thermal hyperalgesia, withdrawal latency, Post-op + Drug: ligated hind paw, ±SEM
Protocol: The effectiveness of harkoseride in reducing spontaneous chronic pain, mechanical allodynia, and thermal hyperalgesia was tested using the chronic constriction injury (CCI) model of peripheral neuropathy, one of the best characterised in vivo animal models used to study chronic pain due to peripheral nerve injury. In this model, loose ligatures are placed around the sciatic nerve, which produces axonal swelling and a partial deafferentation manifested as a significant but incomplete loss of axons in the distal portion of the peripheral nerve. One of the prominent behaviours seen following sciatic nerve ligation is the appearance of hind paw guarding, thought to be an indication of an ongoing spontaneous chronic pain. Support for this idea is derived from reports of increased spinal cord neural activity, and increased spontaneous neuronal discharge in spinothalamic tract neurons and in the ventrobasal thalamus in the absence of overt peripheral stimulation. In addition to the appearance of spontaneous pain behaviours, several abnormalities in stimulus evoked pain occur as a result of CCI, including thermal hyperalgesia and mechanical allodynia. The development of these abnormal stimulus-evoked pains has also been reported as occurring in areas outside the territory of the damaged nerve, areas innervated by uninjured nerves.
Behavioural tests for spontaneous pain, thermal hyperalgesia, and mechanical allodynia were conducted to evaluate different components of neuropathic pain. Baseline data for each test was collected prior to any experimental procedure; in addition, all animals were tested for the development of chronic pain behaviours 13-25 days after CCI surgery 1 day prior to the day of vehicle (0.04 ml sterile water/10 g body weight) or drug administration and after vehicle/drug administration. The sequence of the tests was (1) spontaneous pain-related behaviour (2) mechanical allodynia, (3) thermal hyperalgesia in order to minimise the influence of one test on the result of the next. The testing procedures and results are presented separately for each aspect of chronic pain. Either 0 (vehicle, 0.04 ml/10 g body weight), 5, 10, 20 or 40 mg/kg of SPM 927 (n=7-23/group) was administered i.p. 15 minutes before the first behavioural test.
Thermal hyperalgesia was assessed by means of withdrawal latency in response to radiant heat applied to the subplantar surface of the ligated rat hind paw. As compared to the baseline latency (s), a significant decrease in the (postoperative) latency of foot withdrawal in response to the thermal stimulus was interpreted as indicating the presence of thermal hyperalgesia following chronic constriction injury.

[4] = system: acute spinal thermal nociception; experiment: Tail flick test, rat; assay type: in vivo; settings: for Anti-nociceptive effect: ±SEM
Description: Harkoseride was additionally tested for potential activity in acute spinal thermal nociception using the tail flick test. In this model of acute thermal spinal/reflex hyperalgesia radiant heat is applied to the animal's tail approximately 2 cm from the tip and time latency for withdrawal reaction is automatically assessed by an algometer, a defined maximal stimulus time prevents tissue damage. This test is widely used as an assay for the anti-nociceptive efficacy of pharmacological agents and is highly predictive of acute analgesic efficacy in humans.
Results for 20 and 40 mg/kg harkoseride i.p are shown in table 5 [percent anti-nociception, calculated as [{(post-drug latency)−(pre-drug-latency)}/{(max. latency)−(pre-drug latency)}×100]±SEM, n=12/group]. A baseline or pre-drug tail-flick latency was determined by averaging 5 consecutive measurements taken 2 minutes apart. Vehicle (sterile water 0.04 ml/10 g body weight) or harkoseride were then administered and tail flick latencies recorded at 10-minute intervals for the next 60 minutes.

[5] = system: formalin-induced nociception (paw licking); experiment: Subchronic inflammatory nociception in mice (formalin test); assay type: in vivo; settings: for nociceptive threshold, early phase: 0-5 min after formalin (acute pain); for nociceptive threshold, late phase: 20-30 min after formalin (subchronic inflammatory pain); for effect on formalin-induced nociceptive response (in words): 10, 20, 40 mg/kg i.p.
Protocol: Subchronic inflammatory nocicpetion in mice was induced by the subplantar injection of formalin (0.02 ml of a 5% solution). Nociceptive behaviour (paw licking) was measured and quantified between 0 and 5 min (acute pain) and between 20 and 30 min (subchronic inflammatory pain) after formalin.
Drugs and experimental design: SPM 927 and GBP were suspended in 1% methylcellulose and administered i.p. at doses of 10 mg/kg, 20 mg/kg and 40 mg/kg. Pre-treatment time was 30 min before pain measurement. One group of animals served as controls and consequently received an injection of solvent (10 ml/kg) and another group of animals received a reference compound (Carrageenan test: 10 mg/kg indomethacin; Formalin test: 10 mg/kg morphine). Each compound was tested in a separate experiment and each experiment included a control and a reference group. 10 rats per group were used in the Carrageenan test and 6 mice per group in the formalin test.

## COC[C@@H](NC(C)=O)C(=O)NCc1ccccc1 [SPM 927, (R)-2-Acetamido-N-benzyl-3-methoxypropionamide]
[1]; 5 mg/kg i.p., 10 min after formalin
  Weighted pain score: 0.31 ± 0.11
[1]; 5 mg/kg i.p., 20 min after formalin
  Weighted pain score: 0.78 ± 0.23
[1]; 5 mg/kg i.p., 30 min after formalin
  Weighted pain score: 1.47 ± 0.20
[1]; 5 mg/kg i.p., 40 min after formalin
  Weighted pain score: 1.46 ± 0.19
[1]; 10 mg/kg i.p., 10 min after formalin
  Weighted pain score: 0.42 ± 0.17
[1]; 10 mg/kg i.p., 20 min after formalin
  Weighted pain score: 0.33 ± 0.16
[1]; 10 mg/kg i.p., 30 min after formalin
  Weighted pain score: 1.02 ± 0.27
[1]; 10 mg/kg i.p., 40 min after formalin
  Weighted pain score: 1.05 ± 0.19
[1]; 20 mg/kg i.p., 10 min after formalin
  Weighted pain score: 0.48 ± 0.18
[1]; 20 mg/kg i.p., 20 min after formalin
  Weighted pain score: 0.57 ± 0.14
[1]; 20 mg/kg i.p., 30 min after formalin
  Weighted pain score: 0.78 ± 0.18
[1]; 20 mg/kg i.p., 40 min after formalin
  Weighted pain score: 1.02 ± 0.24
[1]; 40 mg/kg i.p., 10 min after formalin
  Weighted pain score: 0.12 ± 0.05
[1]; 40 mg/kg i.p., 20 min after formalin
  Weighted pain score: 0.10 ± 0.04
[1]; 40 mg/kg i.p., 30 min after formalin
  Weighted pain score: 0.09 ± 0.06
[1]; 40 mg/kg i.p., 40 min after formalin
  Weighted pain score: 0.12 ± 0.06
[1]; listed as Harkoseride
  effect on formalin-induced nociceptive behaviour (in words): dose dependant reduction
[1]; listed as harkoseride
  effect on formalin-induced nociceptive behaviour (in words): Significant and dose dependent efficacy
[2]; 8 mg/kg i.p. -30 min
  PAW-WITHDRAWAL LATENCY, % change: +60% (b)
  PAW-WITHDRAWAL LATENCY, mean ± s.e.m.: 26.1 ± 5.4 NS (b) sec
[2]; 16 mg/kg i.p. -30 min
  PAW-WITHDRAWAL LATENCY, % change: +3% b)
  PAW-WITHDRAWAL LATENCY, mean ± s.e.m.: 16.8 ± 4.5 NS (b) sec
[2]; 32 mg/kg i.p. -30 min
  PAW-WITHDRAWAL LATENCY, % change: +29% (b)
  PAW-WITHDRAWAL LATENCY, mean ± s.e.m.: 21.1 ± 5.6 NS (b) sec
[3]; 5 mg/kg i.p.
  Thermal hyperalgesia, withdrawal latency, Post-op + Drug: 9.2 ± 0.98 s
[3]; 10 mg/kg i.p.
  Thermal hyperalgesia, withdrawal latency, Post-op + Drug: 8.1 ± 0.59 s
[3]; 20 mg/kg i.p.
  Thermal hyperalgesia, withdrawal latency, Post-op + Drug: 9.7 ± 0.96 s
[3]; 40 mg/kg i.p.
  Thermal hyperalgesia, withdrawal latency, Post-op + Drug: 10.2 ± 0.75 s
[3]; 5-40 mg/kg i.p.
  effect on thermal hyperalgesia (in words): dose dependently reduced
[3]; i.p.
  dose at which the maximum effect on thermal hyperalgesia is seen: 20 mg/kg
[4]; 20 mg/kg i.p., 10 min after drug
  Anti-nociceptive effect: 5.0 ± 3.94%
[4]; 20 mg/kg i.p., 20 min after drug
  Anti-nociceptive effect: 9.7 ± 7.51%
[4]; 20 mg/kg i.p., 30 min after drug
  Anti-nociceptive effect: 9.7 ± 2.37%
[4]; 20 mg/kg i.p., 40 min after drug
  Anti-nociceptive effect: 1.7 ± 7.42%
[4]; 20 mg/kg i.p., 50 min after drug
  Anti-nociceptive effect: 5.4 ± 4.12%
[4]; 20 mg/kg i.p., 60 min after drug
  Anti-nociceptive effect: 8.1 ± 5.20%
[4]; 40 mg/kg i.p., 10 min after drug
  Anti-nociceptive effect: −1.6 ± 12.82%
[4]; 40 mg/kg i.p., 20 min after drug
  Anti-nociceptive effect: −4.3 ± 14.04%
[4]; 40 mg/kg i.p., 30 min after drug
  Anti-nociceptive effect: −2.3 ± 9.14%
[4]; 40 mg/kg i.p., 40 min after drug
  Anti-nociceptive effect: −4.4 ± 11.44%
[4]; 40 mg/kg i.p., 50 min after drug
  Anti-nociceptive effect: 0.3 ± 15.50%
[4]; 40 mg/kg i.p., 60 min after drug
  Anti-nociceptive effect: −5.5 ± 14.11%
[4]; 20 and 40 mg/kg i.p., listed as harkoseride
  effect in the tail flick test (in words): negative results; also recorded: little or no effect; also recorded: no anti-nociceptive effect
[5]; 10 mg/kg i.p.
  nociceptive threshold, early phase: 67 ± 15 s
  nociceptive threshold, late phase: 58 ± 16^a s
[5]; 20 mg/kg i.p.
  nociceptive threshold, early phase: 69 ± 8 s
  nociceptive threshold, late phase: 128 ± 16 s
[5]; 40 mg/kg i.p.
  nociceptive threshold, early phase: 8 ± 8^a s
  nociceptive threshold, late phase: 17 ± 17^a s
[5]
  effect on formalin-induced nociceptive response (in words): near complete reversal
[5]; listed as SPM-927
  effect on formalin-induced nociceptive response (in words): dose dependently suppressed
